“Also recorded” adds a separate entry of the source.
How the values were obtained:
[1] = compared with Tpo itself; literature (Blood 85:981; J interferon Cyto Res); cited from earlier work
[2] = system: Male Sprague Dawley rats; assay: left middle cerebral artery occlusion followed by reperfusion (focal stroke); type: in vivo, rat
Description: Male Sprague Dawley rats, 10 weeks of age (n=6/group) undergo 2-3 hours of left middle cerebral artery occlusion followed by 20-48 hours of reperfusion. Vehicle or thrombopoietin (0.03 to 1.00 μg/kg) is administered intravenously immediately after reperfusion. Brain infarct and swelling, neurologic deficits, matrix metalloproteinase-9 (MMP-9), tissue inhibitor of metalloproteinase-1 (TIMP-1), thrombopoietin and c-Mpl (thrombopoietin receptor) mRNA and protein, MMP-9 enzyme activity and protein expression, and the integrity of the blood-brain barrier are measured. Reperfusion of the left middle cerebral artery occlusion is expected to produce a large infarct and swelling after stroke.
Thrombopoietin is administered intravenously over the range 0.001-10 μg/kg. […] Stroke-induced increases in cortical MMP-9 mRNA, enzyme activity and protein expression, TIMP-1 mRNA, and Evans blue extravasation would be reduced by administration of thrombopoietin.

[3] = system: heart; details: earlier work of the inventor, U.S. Pat. No. 7,879,318; cited from earlier work
[4] = rat MCA occlusion/reperfusion, i.v. thrombopoietin

Compound	crossing of the blood brain barrier relative to Tpo [1]	most effective thrombopoietin dose ([2]; i.v., tested over the range 0.001-10 μg/kg, immediately or 2 hours after reperfusion) [µg/kg]	stroke-induced increase in Evans blue extravasation (blood-brain barrier integrity) [2, 4]	stroke-induced increase in TIMP-1 mRNA [2, 4]	stroke-induced increases in cortical MMP-9 mRNA, enzyme activity and protein expression [2, 4]	neurologic deficits after stroke ([2]; rat MCA occlusion/reperfusion, i.v. immediately or 2 hours after reperfusion, vs untreated controls)	infarct size and swelling ([2]; rat, 2-3 h MCA occlusion, 20-48 h reperfusion, thrombopoietin i.v. immediately or 2 hours after reperfusion, vs untreated controls)	protection of the heart against deleterious effects of ischemia/reperfusion [3]
romiplostim	cross the blood brain barrier more effectively than does Tpo itself							
CC1=NN(c2ccc(C)c(C)c2)C(=O)/C1=N\Nc1cccc(-c2cccc(C(=O)O)c2)c1O [eltrombopag]	cross the blood brain barrier more effectively than does Tpo itself							
Thrombopoietin		0.05 to 1.0	reduced	reduced	reduced	ameliorate	significantly reduces these indices of injury to the brain in a dose-dependent manner; also recorded: significantly reduce	protects the heart against various deleterious effects of ischemia/reperfusion
